A word on the MIC: it is the smallest concentration in the dilution series that meets the test's criterion for growth inhibition. Low values mean greater potency, high ones weaker potency. In general, IC50 refers to the concentration needed to halve the response being measured. A lower IC50 goes with inhibition by little substance.

This note sets out measurements from ChEMBL document CHEMBL1681741, “SAR studies on dihydropyrimidinone antibiotics” (Bioorg Med Chem Lett, 2011).

Values after ≈ are worked out from the molar mass of the structure shown.

Assay [1] relates to Staphylococcus aureus. As to the kind of experiment: Antimicrobial activity against methicillin-resistant Staphylococcus aureus by NCCLS method. It is filed as functional.
For another assay, the system named is Escherichia coli. As to the kind of experiment: Inhibition of protein translation in Escherichia coli S30 cell extract. It counts as functional.
The nature of assay [2]: Inhibition of protein translation in rabbit reticulocytes. It is filed as functional, cell-based, Oryctolagus cuniculus.
Assay [3] is described as follows: Selectivity index, ratio of IC50 for protein translation inhibition in Escherichia coli S30 cell extract to IC50 for protein translation inhibition in rabbit reticulocytes. It counts as functional.
Assay [4] concerns Staphylococcus aureus. As to the kind of experiment: Antimicrobial activity against methicillin-resistant Staphylococcus aureus in iv dosed mouse septicemia model. It counts as functional. As to conditions: read-out: PD50.
Assay [5] deals with Staphylococcus aureus. As to the kind of experiment: Antimicrobial activity against methicillin-resistant Staphylococcus aureus in mouse septicemia model. It is filed as functional.

As for `CN1C(=O)C(N(C)C(=O)C[C@@H](N)CCCNC(=N)N)CN=C1NC(N)=O` (mixture of isomers), the minimum inhibitory concentration (MIC) in the assay with Staphylococcus aureus [1] is > 500 µg/mL. Further, the 50% inhibitory concentration (IC50) (with Escherichia coli; in assay [2]) was > 500 µM throughout.
Regarding `CN(C(=O)C[C@H](CCCCN)NC=O)C1CNC(NC(N)=O)=NC1=O` (mixture of isomers), the MIC with Staphylococcus aureus [1] is > 500 µg/mL. The half-inhibitory concentration (IC50) (with Escherichia coli; in assay [2]) was > 500 µM each time.
Regarding `CN(C(=O)C[C@@H](N)CCCNC(=N)N)C1CNC(N2CCNC2=O)=NC1=O` (mixture of isomers), in the assay with Staphylococcus aureus [1], the minimal inhibitory concentration (MIC) is > 500 µg/mL. The half-inhibitory concentration (IC50) (in the assay with Escherichia coli; in assay [2]) was > 500 µM throughout.
In the assay on Staphylococcus aureus [1], `CN[C@@H](CCCCN)CC(=O)N(C)C1CNC(NC(N)=O)=NC1=O` (mixture of isomers) yielded a minimum inhibitory concentration (MIC) of 128 µg/mL. The IC50 amounted to 25 µM in the assay with Escherichia coli and 5 µM in assay [2]. In addition, the Selectivity ratio in assay [3] amounted to 0.2.
Taken in the same sequence, the figures for `CN(CC1CNC(NC(N)=O)=NC1=O)C(=O)C[C@@H](N)CCCNC(=N)N` (mixture of isomers) were > 500 µg/mL, 51 µM, 56 µM and 1.1.
Taken in the same sequence, the figures for `CN(C(=O)C[C@@H](N)Cc1ccc(C(=N)N)cc1)C1CNC(NC(N)=O)=NC1=O` (mixture of isomers) were 512 µg/mL, 0.51 µM, 12.3 µM and 8.2.
Taken in the same sequence, the figures for `CN(C(=O)C[C@@H](N)c1cccc(NC(=N)N)c1)C1CNC(NC(N)=O)=NC1=O` (mixture of isomers) were 256 µg/mL, 0.15 µM, 1.9 µM and 10.
For `CC(=O)NC1=CC(=O)C(N(C)C(=O)C[C@@H](N)CCCNC(=N)N)CN1` (mixture of isomers), the MIC in the assay on Staphylococcus aureus [1] was > 500 µg/mL. Also, the 50% inhibitory concentration (IC50) (in the assay on Escherichia coli; in assay [2]) was > 500 µM each time.
`CC(=O)NC1=NC(=O)C(N(C)C(=O)C[C@@H](N)CCCNC(=N)N)CN1` (mixture of isomers) showed a minimal inhibitory concentration (MIC) against Staphylococcus aureus [1] of 8 µg/mL. In addition, the values for the 50% inhibitory concentration (IC50) (in the assay with Escherichia coli; in assay [2]) were 0.1 µM and 0.2 µM, respectively. Besides, in assay [3], the Selectivity ratio came out at 2.
Taken in the same sequence, the figures for `CN(C(=O)C[C@@H](N)C[C@@H]1CCNC1)C1CNC(NC(N)=O)=NC1=O` (mixture of isomers) were 128 µg/mL, 3.9 µM, 3.4 µM and 0.9.
For `CN(C(=O)C[C@@H](N)CCC(=O)NC(=N)N)C1CNC(NC(N)=O)=NC1=O` (mixture of isomers) the same measures were > 500 µg/mL, 226 µM, 7 µM and 0.03.
For `CCN(C(=O)C[C@@H](N)CCCNC(=N)N)C1CNC(NC(N)=O)=NC1=O` (mixture of isomers) the same measures were 256 µg/mL, 1.8 µM, 45 µM and 25.
In the assay with Staphylococcus aureus [1], `C/N=C(/N)N1CCC(C[C@H](N)CC(=O)N(C)C2CNC(NC(N)=O)=NC2=O)CC1` (mixture of isomers) yielded an MIC of 64 µg/mL. Moreover, the concentration for half-maximal inhibition (IC50) in the assay on Escherichia coli amounted to 3.6 µM; in assay [2], 53 µM. Moreover, the Selectivity ratio in assay [3] is given as 14.7.
`CN(C(=O)C[C@@H](N)CCCCN)C1CN=C(NC(N)=O)NC1=O` (mixture of isomers) returned an MIC with Staphylococcus aureus [1] of 64 µg/mL. Also, the concentration for half-maximal inhibition (IC50) with Escherichia coli amounted to 6.5 µM; in assay [2] it was 39.8 µM. For the same compound, in assay [3], the Selectivity ratio was 6.
Take `CN(C(=O)C[C@@H](N)CCCNC(=N)N)C1CN=C(NC(N)=O)NC1` (mixture of isomers): in the assay with Staphylococcus aureus [1], the MIC is > 256 µg/mL. This compound also showed an IC50 with Escherichia coli of 121 µM.
In the assay on Staphylococcus aureus [1], `CN(C(=O)C[C@@H](N)CCCN/C(N)=N\O)C1CNC(NC(N)=O)=NC1=O` (mixture of isomers) registered an MIC of 64 µg/mL. Also, the figures for the half-inhibitory concentration (IC50) (with Escherichia coli; in assay [2]) were 8.2 µM and 23.2 µM, respectively. The Selectivity ratio in assay [3] came out at 2.8.
Taken in the same sequence, the figures for `CN(C(=O)C[C@@H](N)CCCCCN)C1CNC(NC(N)=O)=NC1=O` (mixture of isomers) were 16 µg/mL, 5 µM, 10 µM and 2.
Taken in the same sequence, the figures for `CN(C(=O)C[C@@H](N)C[C@H]1CCNC1)C1CNC(NC(N)=O)=NC1=O` (mixture of isomers) were 64 µg/mL, 2 µM, 0.6 µM and 0.3.
For `CC(=O)NC(=N)NCCC[C@H](N)CC(=O)N(C)C1CNC(NC(N)=O)=NC1=O` (mixture of isomers), in the assay with Staphylococcus aureus [1], the minimal inhibitory concentration (MIC) is > 256 µg/mL. Besides, 106 µM corresponded to half-maximal inhibition in the assay with Escherichia coli (IC50).
`CN(C(=O)C[C@@H](N)CCCNC(N)=O)C1CNC(NC(N)=O)=NC1=O` (mixture of isomers): in the assay with Staphylococcus aureus [1], the minimal inhibitory concentration (MIC) was > 500 µg/mL. The IC50 (with Escherichia coli; in assay [2]) was > 500 µM throughout.
As to `CN(C(=O)C[C@@H](N)CCCN)C1CN=C(NC(N)=O)NC1=O` (mixture of isomers), the MIC against Staphylococcus aureus [1] turned out to be 64 µg/mL. Moreover, the IC50 in the assay on Escherichia coli was 9 µM; in assay [2], < 5 µM. The Selectivity ratio in assay [3] is given as <0.6.
`CN(C(=O)C[C@@H](N)C1CCN(C(=N)N)CC1)C1CNC(NC(N)=O)=NC1=O` (mixture of isomers) had an MIC against Staphylococcus aureus [1] of 16 µg/mL. The results for the half-inhibitory concentration (IC50) (with Escherichia coli; in assay [2]) were 0.18 µM and 0.23 µM, respectively. For the same compound, in assay [3], the Selectivity ratio is recorded as 1.3.
Take `CN(C(=O)C[C@@H](N)CC1CCN(C(=N)N)CC1)C1CNC(NC(N)=O)=NC1=O` (mixture of isomers): the minimum inhibitory concentration (MIC) against Staphylococcus aureus [1] and in the assay on Staphylococcus aureus [5] was 16 µg/mL each time. Further, the 50% inhibitory concentration (IC50) in the assay on Escherichia coli was 0.11 µM; in assay [2], 0.75 µM. Further, the Selectivity ratio in assay [3] is reported as 6.8. Moreover, in the assay on Staphylococcus aureus [4], the ED50 turned out to be 2.4 mg/kg.
On to `C/N=C(/NC)NCCC[C@H](N)CC(=O)N(C)C1CNC(NC(N)=O)=NC1=O` (mixture of isomers), for which, in the assay on Staphylococcus aureus [1], the minimal inhibitory concentration (MIC) is 256 µg/mL. Also, the figures for the IC50 (with Escherichia coli; in assay [2]) were 1.3 µM and 26.3 µM, respectively. Besides, in assay [3], the Selectivity ratio was found to be 20.
In the case of `CC/N=C(/N)NCCC[C@H](N)CC(=O)N(C)C1CN=C(NC(N)=O)NC1=O` (mixture of isomers), the MIC against Staphylococcus aureus [1] is > 256 µg/mL. Moreover, the IC50 turned out to be 2.4 µM in the assay on Escherichia coli and 27.4 µM in assay [2].
For `CN1CC(N(C)C(=O)C[C@@H](N)CCCNC(=N)N)C(=O)N=C1NC(N)=O` (mixture of isomers) the same measures were > 500 µg/mL, > 500 µM and > 500 µM.
With `CN(C)C(=N)NCCC[C@H](N)CC(=O)N(C)C1CNC(NC(N)=O)=NC1=O` (mixture of isomers), the MIC against Staphylococcus aureus [1] is 64 µg/mL. Moreover, the half-inhibitory concentration (IC50) with Escherichia coli was determined as 4.2 µM; in assay [2], 20.6 µM. The Selectivity ratio in assay [3] was determined as 4.9.
Take `CN[C@H](CC(C)C)C(=O)N[C@H]1C(=O)N[C@@H](CC(N)=O)C(=O)N[C@H]2C(=O)N[C@H]3C(=O)N[C@H](C(=O)N[C@H](C(=O)O)c4cc(O)cc(O)c4-c4cc3ccc4O)[C@H](O)c3ccc(c(Cl)c3)Oc3cc2cc(c3O[C@@H]2O[C@H](CO)[C@@H](O)[C@H](O)[C@H]2O[C@H]2C[C@](C)(N)[C@H](O)[C@H](C)O2)Oc2ccc(cc2Cl)[C@H]1O` [VANCOMYCIN]: the ED50 in the assay with Staphylococcus aureus [4] was determined as 9.6 mg/kg. The same compound registered an MIC in the assay with Staphylococcus aureus [5] of 0.8 µg/mL (≈ 0.552 µM).
As for `CN(C(=O)C[C@@H](N)CCCN=C(N)N)C1CN=C(NC(N)=O)NC1=O` (mixture of isomers), the figures for the minimal inhibitory concentration (MIC) against Staphylococcus aureus [1] and with Staphylococcus aureus [5] were 8 µg/mL and 12.8 µg/mL, respectively. The half-maximal inhibitory concentration (IC50) in assay [2] came out at 0.2 µM. Further, the Selectivity ratio in assay [3] was 0.67. Also, the ED50 in the assay with Staphylococcus aureus [4] was found to be 0.7 mg/kg.
The compound `CCC(=O)NC1=NC(=O)C(N(C)C(=O)C[C@@H](N)CCCNC(=N)N)CN1` (mixture of isomers) yielded an MIC in the assay on Staphylococcus aureus [1] of 16 µg/mL. Also, the IC50 (with Escherichia coli; in assay [2]) was < 5 µM each time.
For the compound `CN(C(=O)C[C@@H](N)C[C@H]1CCN(C(=N)N)C1)C1CNC(NC(N)=O)=NC1=O` (mixture of isomers), the MIC worked out at 8 µg/mL against Staphylococcus aureus [1] and 16 µg/mL against Staphylococcus aureus [5]. In addition, the half-inhibitory concentration (IC50) in the assay with Escherichia coli was determined as 0.17 µM; in assay [2], 0.45 µM. For the same compound, in assay [3], the Selectivity ratio is on record as 2.6. In the assay on Staphylococcus aureus [4], the ED50 was found to be 1.5 mg/kg.
For `C/N=C(/N)NCCC[C@H](N)CC(=O)N(C)C1CN=C(NC(N)=O)NC1=O` (mixture of isomers), the results for the MIC against Staphylococcus aureus [1] and against Staphylococcus aureus [5] were 8 µg/mL and 32 µg/mL, respectively. For the same compound, the figures for the half-maximal inhibitory concentration (IC50) (with Escherichia coli; in assay [2]) were 0.2 µM and 1.3 µM, respectively. Also, the Selectivity ratio in assay [3] is 6.5. For the same compound, the ED50 in the assay on Staphylococcus aureus [4] was 3.3 mg/kg.
The compound `CC(=O)N(C)C1=NC(=O)C(N(C)C(=O)C[C@@H](N)CCCNC(=N)N)CN1` (mixture of isomers) displayed a minimal inhibitory concentration (MIC) against Staphylococcus aureus [1] of 64 µg/mL. Besides, the half-maximal inhibitory concentration (IC50) in the assay on Escherichia coli is 6.8 µM; in assay [2] it was 21 µM. Also, the Selectivity ratio in assay [3] worked out at 3.1.
`CN(C(=O)C[C@@H](N)CCCNC(=N)N)c1ccc(NC(N)=O)[nH]c1=O` (mixture of isomers): in the assay with Staphylococcus aureus [1], the minimum inhibitory concentration (MIC) was > 500 µg/mL. Besides, the half-maximal inhibitory concentration (IC50) is > 500 µM with Escherichia coli and 56 µM in assay [2].
Take `CN(C(=O)C[C@@H](N)CCCN1CCNC1=N)C1CNC(NC(N)=O)=NC1=O` (mixture of isomers): 128 µg/mL was the least that counted as inhibitory in the assay on Staphylococcus aureus [1] (MIC). For the same compound, the IC50 in the assay on Escherichia coli is 4.2 µM; in assay [2], 35 µM. Besides, in assay [3], the Selectivity ratio amounted to 8.3.
`CN(C(=O)C[C@@H](N)CC1CCNCC1)C1CNC(NC(N)=O)=NC1=O` (mixture of isomers) yielded an MIC in the assay on Staphylococcus aureus [1] of 64 µg/mL. In addition, the concentration for half-maximal inhibition (IC50) (in the assay with Escherichia coli; in assay [2]) was 6.6 µM in each case. For the same compound, in assay [3], the Selectivity ratio was 1.
Regarding `CN(C)C(=O)NC1=NC(=O)C(N(C)C(=O)C[C@@H](N)CCCNC(=N)N)CN1` (mixture of isomers), the MIC against Staphylococcus aureus [1] was > 500 µg/mL. For the same compound, the concentration for half-maximal inhibition (IC50) in the assay on Escherichia coli was found to be 8.8 µM; in assay [2], 19.7 µM. Also, the Selectivity ratio in assay [3] came out at 3.4.
